# Assay results taken from patent US20110136665A1.
# Key:
# [1] = test system: Leptosphaeria nodorum; assay: Activity against Septoria nodorum blotch of wheat caused by Leptosphaeria nodorum
# Description: (§1) The mixture was then made up with water to 100 ml.
# The next day, the pots were inoculated with an aqueous spore suspension of Leptosphaeria nodorum (syn. Stagonospora nodorum, Septoria nodorum). The plants were then placed in a chamber at 20° C. and maximum atmospheric humidity.
# [2] = test system: Alternaria solani; assay: Persistency against early blight on tomatoes caused by Alternaria solani, 5 day protective treatment; conditions: tomato
# Description: as §1
# To test for persistency, the leaves were infected with an aqueous spore suspension of Alternaria solani in a 2% strength biomalt solution having a density of 0.17×10^6 spores/ml only after 5 days. The plants were then placed in a water-vapor-saturated chamber at temperatures between 20 and 22° C.
# Evaluation was carried out analogously to Example 1.
SMILES,Efficacy in % of the untrated control ([1]; 0.4 ppm in spray liquor) [%],Efficacy in % of the untrated control ([1]; 0.8 ppm in spray liquor) [%],Efficacy in % of the untrated control ([1]; 1.6 ppm in spray liquor) [%],Efficacy in % of the untrated control ([2]; 0.8 ppm in spray liquor) [%],Efficacy in % of the untrated control ([2]; 1.6 ppm in spray liquor) [%],Efficacy in % of the untrated control ([2]; 3.1 ppm in spray liquor) [%],Efficacy in % of the untrated control ([2]; 6.25 ppm in spray liquor) [%],Efficacy in % of the untrated control ([2]; 25 ppm in spray liquor) [%],Efficacy in % of the untrated control ([1]; 3.1 ppm in spray liquor) [%],Efficacy in % of the untrated control ([1]; 12.5 ppm in spray liquor) [%]
"Fc1ccc([C@]2(Cn3cncn3)O[C@H]2c2ccccc2Cl)cc1 (racemic) [epoxiconazole, (2RS,3SR)-1-[3-(2-chlorophenyl)-2,3-epoxy-2-(4-fluorophenyl)propyl]-1H-1,2,4-triazole]",0,0,33,0,0,0,0,0,,
"O=C(Nc1ccccc1-c1ccc(Cl)cc1)c1cccnc1Cl [boscalid, 2-chloro-N-(4′-chlorobiphenyl-2-yl)nicotinamide]",,,0,,,,0,,11,33
"CC1(C)CCC(Cc2ccc(Cl)cc2)C1(O)Cn1cncn1 (stereo not drawn) [metconazole, 5-(4-chlorobenzyl)-2,2-dimethyl-1-[1,2,4]triazol-1-ylmethylcyclopentanol]",0,0,56,,,,,,,
